Paper PMC9854539, “QSAR Studies, Molecular Docking, Molecular Dynamics, Synthesis, and Biological Evaluation of Novel Quinolinone-Based Thiosemicarbazones against Mycobacterium tuberculosis” (Antibiotics, 2022)
In brackets after ≈: the same amount, converted by molar mass.

How the values were obtained:
Assay type in all cases: cell-based, Mycobacterium tuberculosis
[1] = tested on: M. tuberculosis Orphan; assay: Spot culture growth inhibition assay (SPOTi), MIC; details: Mycobacterium tuberculosis; multiresistant to isoniazid and rifampicin
[2] = tested on: M. tuberculosis Beijing; assay: Spot culture growth inhibition assay (SPOTi), MIC; details: multiresistant to isoniazid and rifampicin
[3] = tested on: M. tuberculosis Haarlem; assay: Spot culture growth inhibition assay (SPOTi), MIC; details: multiresistant to isoniazid and rifampicin
[4] = tested on: M. tuberculosis ATCC 35838; assay: Spot culture growth inhibition assay (SPOTi), MIC; details: rifampicin resistant
[5] = tested on: M. tuberculosis ATCC 35822; assay: Spot culture growth inhibition assay (SPOTi), MIC; details: isoniazid resistant
[6] = tested on: M. tuberculosis LAM 9; assay: Spot culture growth inhibition assay (SPOTi), MIC; details: multiresistant to isoniazid and rifampicin
[7] = tested on: multiresistant M. tuberculosis; details: summary of Table 9
[8] = Mycobacterium tuberculosis, ATCC35838
[9] = Mycobacterium tuberculosis, ATCC35822
[10] = Mycobacterium tuberculosis, LAM9

Row | Structure (SMILES) | MIC [1] [µM] | MIC ([2]; Mycobacterium tuberculosis) [µM] | MIC ([3]; Mycobacterium tuberculosis) [µM] | MIC [4, 8] [µM] | MIC [5, 9] [µM] | MIC [6, 10] [µM] | MIC against the different families of multiresistant M. tuberculosis [7] [µM] | MIC [2] [µM] | MIC [3] [µM] | MIC [4] [µM] | MIC [5] [µM] | MIC [6] [µM]
1 | CC(/C=C/c1cc2cc(C)ccc2[nH]c1=O)=N\NC(N)=S [Compound 11b, (E)-2-((E)-4-(6-Methyl-2-oxo-1,2-dihydroquinolin-3-yl)but-3-en-2-ylidene)hydrazine-1-carbothioamide] | 33.3 (≈ 10 µg/mL) | 1.66 (≈ 0.499 µg/mL) | 3.33 (≈ 1 µg/mL) | 3.33 (≈ 1 µg/mL) | 3.33 (≈ 1 µg/mL) | 16.6 (≈ 5 µg/mL) | – | – | – | – | – | –
2 | CC(/C=C/c1cc2cccc(C)c2[nH]c1=O)=N\NC(N)=S [Compound 11c, (E)-2-((E)-4-(8-Methyl-2-oxo-1,2-dihydroquinolin-3-yl)but-3-en-2-ylidene)hydrazine-1-carbothioamide] | 66.6 (≈ 20 µg/mL) | 0.33 (≈ 0.0991 µg/mL) | 33.3 (≈ 10 µg/mL) | 1.66 (≈ 0.499 µg/mL) | 0.33 (≈ 0.0991 µg/mL) | 3.29 (≈ 0.988 µg/mL) | – | – | – | – | – | –
3 | CC(/C=C/c1cc2ccc(Cl)cc2[nH]c1=O)=N\NC(N)=S [Compound 11d, (E)-2-((E)-4-(7-Chloro-2-oxo-1,2-dihydroquinolin-3-yl)but-3-en-2-ylidene)hydrazine-1-carbothioamide] | 6.23 (≈ 2 µg/mL) | 0.33 (≈ 0.106 µg/mL) | 1.56 (≈ 0.5 µg/mL) | 3.33 (≈ 1.07 µg/mL) | 6.23 (≈ 2 µg/mL) | 3.12 (≈ 1 µg/mL) | – | – | – | – | – | –
4 | CC(/C=C/c1cc2cc(Br)ccc2[nH]c1=O)=N\NC(N)=S [Compound 11e, (E)-2-((E)-4-(6-Bromo-2-oxo-1,2-dihydroquinolin-3-yl)but-3-en-2-ylidene)hydrazine-1-carbothioamide] | 27.4 (≈ 10 µg/mL) | 0.27 (≈ 0.0986 µg/mL) | 27.4 (≈ 10 µg/mL) | 2.73 (≈ 0.997 µg/mL) | 1.37 (≈ 0.5 µg/mL) | 2.74 (≈ 1 µg/mL) | – | – | – | – | – | –
5 | CC1COc2c(N3CCN(C)CC3)c(F)cc3c(=O)c(C(=O)O)cn1c23 (stereo not drawn) [Oxafloxacin, reference compound] | – | – | – | – | – | – | 2.76 | 2.76 (≈ 0.997 µg/mL) | 2.76 (≈ 0.997 µg/mL) | 2.76 (≈ 0.997 µg/mL) | 2.76 (≈ 0.997 µg/mL) | 2.76 (≈ 0.997 µg/mL)
